Here are results for 30 molecules from ChEMBL document CHEMBL1154508, “Discovery of GSK345931A: An EP(1) receptor antagonist with efficacy in preclinical models of inflammatory pain” (Bioorg Med Chem Lett, 2009).

Data set [1] has as its target T1, Prostaglandin E2 receptor EP1 subtype (Homo sapiens, UniProt P34995).
T1 sequence (P34995 whole entry): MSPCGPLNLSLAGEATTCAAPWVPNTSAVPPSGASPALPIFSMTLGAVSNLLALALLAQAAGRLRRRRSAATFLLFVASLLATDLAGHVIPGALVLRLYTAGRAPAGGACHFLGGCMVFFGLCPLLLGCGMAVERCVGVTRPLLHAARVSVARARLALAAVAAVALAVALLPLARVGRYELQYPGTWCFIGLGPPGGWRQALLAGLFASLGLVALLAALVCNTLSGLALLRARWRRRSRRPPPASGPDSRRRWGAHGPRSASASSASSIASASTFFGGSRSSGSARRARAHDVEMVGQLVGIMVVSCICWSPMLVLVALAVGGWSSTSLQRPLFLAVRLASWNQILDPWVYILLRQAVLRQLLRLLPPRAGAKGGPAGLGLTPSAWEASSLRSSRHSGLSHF
Kind of data set: Antagonist activity at EP1 receptor assessed as calcium mobilization by FLIPR assay. It is filed as functional. Background: Calcium flux is commonly read through the fluorescence of an indicator in the cells.

Data set [2] relates to Liver microsomes. Kind of data set: Metabolic stability assessed as intrinsic clearance per gram of rat liver microsomes. It is filed as ADME, Microsome. On the technique in general: Liver microsomes are a subcellular fraction often used to study metabolism.
The subject of data set [3] is Liver microsomes. Kind of data set: Metabolic stability assessed as intrinsic clearance per gram of human liver microsomes. It is filed as ADME, Microsome.
Data set [4] deals with Cytochrome P450 2C19 (Homo sapiens, UniProt P33261). The data set can be described thus: Inhibition of CYP2C19. It is filed as ADME.
Data set [5] is described as follows: Ratio of drug level in rat brain to blood at 0.28 mg/kg/hr, iv for 18 hrs at steady state. It is filed as ADME, organism-based. Further details: route intravenous.
Data set [6] addresses Cytochrome P450 2C9 (Homo sapiens, UniProt P11712). Kind of data set: Inhibition of CYP2C9. It is filed as ADME.
Data set [7] concerns the target Cytochrome P450 3A4 (Homo sapiens, UniProt P08684). Kind of data set: Inhibition of CYP3A4. The format is ADME.
In data set [8] the target is Cytochrome P450 2D6 (Homo sapiens, UniProt P10635). Kind of data set: Inhibition of CYP2D6. The format is ADME.
Data set [9] addresses T2, Cytochrome P450 1A2 (Homo sapiens, UniProt P05177).
T2 sequence (P05177 whole entry): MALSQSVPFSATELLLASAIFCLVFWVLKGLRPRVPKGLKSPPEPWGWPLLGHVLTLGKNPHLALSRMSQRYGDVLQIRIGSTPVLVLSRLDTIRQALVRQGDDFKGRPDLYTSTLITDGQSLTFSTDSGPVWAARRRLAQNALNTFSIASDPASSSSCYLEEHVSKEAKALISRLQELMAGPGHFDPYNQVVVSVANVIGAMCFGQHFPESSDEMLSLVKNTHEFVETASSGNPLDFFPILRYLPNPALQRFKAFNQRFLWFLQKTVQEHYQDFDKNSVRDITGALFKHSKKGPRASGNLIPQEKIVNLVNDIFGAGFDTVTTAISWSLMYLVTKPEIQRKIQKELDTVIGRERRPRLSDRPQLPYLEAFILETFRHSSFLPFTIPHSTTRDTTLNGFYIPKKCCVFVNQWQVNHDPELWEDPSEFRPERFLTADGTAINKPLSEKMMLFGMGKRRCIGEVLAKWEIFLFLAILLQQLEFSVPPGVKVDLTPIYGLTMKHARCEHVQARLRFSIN
Kind of data set: Inhibition of CYP1A2. It is filed as ADME.

Data set [10] concerns the target T1, Prostaglandin E2 receptor EP1 subtype. The data set can be described thus: Binding affinity to EP1 receptor.

A word on the pKi: it is the Ki on a negative log10 scale, so that one unit is a factor of ten. One may read the pIC50 as −log10 of the IC50, conventionally taken in molar units. High values mean a small IC50, low ones a large IC50. As usually defined, the Kp is tissue or fluid exposure divided by exposure in the circulation.

pIC50, pKi: −log10 of the molar value.

Cytochrome P450 2C9, sequence (P11712 whole entry): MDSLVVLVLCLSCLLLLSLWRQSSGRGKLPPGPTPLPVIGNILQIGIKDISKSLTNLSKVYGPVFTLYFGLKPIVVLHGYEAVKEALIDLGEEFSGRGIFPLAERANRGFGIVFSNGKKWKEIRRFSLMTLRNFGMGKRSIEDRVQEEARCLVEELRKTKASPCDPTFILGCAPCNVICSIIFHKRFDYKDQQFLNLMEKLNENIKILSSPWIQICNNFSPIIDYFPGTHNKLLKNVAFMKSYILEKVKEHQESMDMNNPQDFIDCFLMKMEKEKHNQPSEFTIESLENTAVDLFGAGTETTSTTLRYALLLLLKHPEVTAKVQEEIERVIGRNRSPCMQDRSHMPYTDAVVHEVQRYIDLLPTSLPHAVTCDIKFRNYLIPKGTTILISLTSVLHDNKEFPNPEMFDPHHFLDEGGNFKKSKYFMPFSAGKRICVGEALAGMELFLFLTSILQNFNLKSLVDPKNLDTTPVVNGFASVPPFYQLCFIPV
Cytochrome P450 3A4, sequence (P08684 whole entry): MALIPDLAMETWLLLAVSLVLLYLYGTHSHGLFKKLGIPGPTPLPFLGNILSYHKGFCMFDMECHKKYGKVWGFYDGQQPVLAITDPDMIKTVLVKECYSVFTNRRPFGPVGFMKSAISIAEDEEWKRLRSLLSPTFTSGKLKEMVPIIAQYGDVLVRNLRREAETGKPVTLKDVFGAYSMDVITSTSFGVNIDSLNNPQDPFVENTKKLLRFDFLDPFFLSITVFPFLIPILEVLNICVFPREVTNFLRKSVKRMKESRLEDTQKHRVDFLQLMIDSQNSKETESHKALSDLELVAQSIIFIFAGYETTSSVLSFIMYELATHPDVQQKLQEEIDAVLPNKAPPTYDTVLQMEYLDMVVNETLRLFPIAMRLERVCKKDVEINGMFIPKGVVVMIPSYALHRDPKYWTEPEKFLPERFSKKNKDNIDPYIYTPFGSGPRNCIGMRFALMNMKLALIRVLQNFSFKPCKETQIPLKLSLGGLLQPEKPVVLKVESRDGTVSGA
Cytochrome P450 2C19, sequence (P33261 whole entry): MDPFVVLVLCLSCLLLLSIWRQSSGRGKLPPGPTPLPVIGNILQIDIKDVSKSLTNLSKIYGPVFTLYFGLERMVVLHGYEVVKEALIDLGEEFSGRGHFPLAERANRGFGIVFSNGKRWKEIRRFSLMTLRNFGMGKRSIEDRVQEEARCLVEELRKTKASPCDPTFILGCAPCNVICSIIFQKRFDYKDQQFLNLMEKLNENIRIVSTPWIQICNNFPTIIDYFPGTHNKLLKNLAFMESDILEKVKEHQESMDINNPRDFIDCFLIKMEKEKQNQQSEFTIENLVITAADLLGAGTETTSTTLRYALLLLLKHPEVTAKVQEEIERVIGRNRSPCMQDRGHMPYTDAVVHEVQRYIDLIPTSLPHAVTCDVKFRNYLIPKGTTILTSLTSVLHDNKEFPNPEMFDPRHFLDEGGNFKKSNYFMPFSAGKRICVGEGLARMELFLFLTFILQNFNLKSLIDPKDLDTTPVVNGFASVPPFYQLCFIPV
Cytochrome P450 2D6, sequence (P10635 whole entry): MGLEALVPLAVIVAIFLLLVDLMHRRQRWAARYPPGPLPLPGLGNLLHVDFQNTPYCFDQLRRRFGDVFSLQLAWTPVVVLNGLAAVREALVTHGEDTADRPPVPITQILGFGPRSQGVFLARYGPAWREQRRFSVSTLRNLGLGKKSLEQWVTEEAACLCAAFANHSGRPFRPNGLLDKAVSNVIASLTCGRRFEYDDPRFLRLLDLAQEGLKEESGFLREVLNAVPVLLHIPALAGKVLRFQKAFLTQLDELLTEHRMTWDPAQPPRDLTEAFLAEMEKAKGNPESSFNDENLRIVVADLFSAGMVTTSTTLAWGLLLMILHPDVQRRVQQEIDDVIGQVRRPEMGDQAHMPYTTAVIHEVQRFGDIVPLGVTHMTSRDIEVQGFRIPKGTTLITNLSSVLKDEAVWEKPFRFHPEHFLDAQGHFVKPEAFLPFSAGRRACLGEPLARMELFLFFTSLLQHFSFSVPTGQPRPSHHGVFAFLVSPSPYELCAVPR

With `O=C(O)c1cccc(-c2ccccc2-c2cc(Cl)ccc2OCc2ccccc2)c1`, in [1], the pKi is 7.50. The figures for the CL entry in [2] and in [3] were “<= 0.5 ml/min/g” and less than 0.5 mL/min/g, respectively. As for `O=C(O)c1cccc(C2=C(c3cc(Cl)ccc3OCc3ccc(F)cc3F)CCC2)n1`, the pIC50 was 4.21 in data set [4]; 4.60 in data set [6]; 4.05 in data set [7]; less than 4.00 in data set [8]; less than 4.00 in data set [9]. For the same molecule, the Kp at 18 h in data set [5] is 0.2. As for `CC(=O)Nc1cc(C(=O)O)cc(-c2ccccc2-c2cc(Cl)ccc2OCc2ccccc2)c1`, the pIC50 in data set [10] was 8.00. On the same count and under the same terms, the figure for `CCC(=O)Nc1cc(C(=O)O)cc(-c2ccccc2-c2cc(Cl)ccc2OCc2ccccc2)c1` is 8.20; for `CCCOc1ccc(Cl)cc1-c1ccccc1-c1cccc(C(=O)O)n1` it is 6.60; for `O=C(O)c1cccc(-c2cc(Cl)ccc2-c2cc(Cl)ccc2OCc2ccccc2)c1` it is less than 6.00.

In data set [10], `O=C(O)c1ccccc1-c1ccccc1-c1cc(Cl)ccc1OCc1ccccc1` had a pIC50 of 7.70. On the same count and under the same terms, as for `O=C(O)c1ccc(-c2ccccc2-c2cc(Cl)ccc2OCc2ccccc2)cc1`, the figure is 6.10; as for `O=C(O)c1cccc(-c2ccccc2-c2cc(Cl)ccc2OCc2ccc(F)cc2)n1`, 8.30; as for `O=C(O)c1cc(-c2ccccc2-c2ccccc2OCc2ccccc2)ccc1Cl`, 6.90. Take `Cc1cccc(-c2cc(Cl)ccc2OCc2ccccc2)c1-c1cccc(C(=O)O)c1`: in data set [10], the pIC50 was 7.00.

`CC(C)C(=O)Nc1cc(C(=O)O)cc(-c2ccccc2-c2cc(Cl)ccc2OCc2ccccc2)c1` gave a pIC50 in data set [10] of 8.00. This pIC50 is 1.00 log units higher than that of the molecule before. Still for that read-out and setting: the figure for `COCC(=O)Nc1cc(C(=O)O)cc(-c2ccccc2-c2cc(Cl)ccc2OCc2ccccc2)c1` is 8.40; for `O=C(O)c1cccc(-c2ccccc2-c2cc(Cl)ccc2OCC2CCCC2)n1` it is 6.80. Still for that read-out and setting: as for `O=C(O)c1ccc(F)c(-c2ccccc2-c2ccccc2OCc2ccccc2)c1`, the figure is 7.10. Same read-out and setting: the figure for `O=C(O)c1cccc(-c2ccccc2-c2cc(Cl)ccc2OCc2ccccc2F)n1` is 7.40; for `O=C(O)c1cccc(-c2ccccc2-c2ccc(Cl)cc2OCc2ccccc2)c1` it is 6.50. Take `Cc1ccc(-c2cccc(C(=O)O)c2)c(-c2cc(Cl)ccc2OCc2ccccc2)c1`: in data set [10], the pIC50 was less than 6.00.

In [10], `Cc1ccc(-c2cc(Cl)ccc2OCc2ccccc2)c(-c2cccc(C(=O)O)c2)c1` had a pIC50 of less than 6.00.

Take `O=C(O)c1cccc(-c2ccccc2-c2cc(Cl)ccc2OCc2c(F)cc(F)cc2F)n1`: the pIC50 in [10] was 7.90. Take `O=C(O)c1cccc(-c2ccccc2-c2cc(Cl)ccc2OCc2ccc(Br)cc2F)n1`: the pIC50 in data set [10] is 7.30. Turning to `O=C(O)c1cccc(-c2ccccc2-c2cc(Cl)ccc2OCc2ccc(Cl)cc2F)n1`, the negative-log IC50 (pIC50) in [10] is 7.70. Same read-out and setting: the figure for `CCCCOc1ccc(Cl)cc1-c1ccccc1-c1cccc(C(=O)O)n1` is 7.00; for `O=C(O)c1cccc(-c2ccccc2-c2cc(Cl)ccc2OCc2ccc(F)cc2Cl)n1` it is 7.20.

`O=C(O)c1cc(F)cc(-c2ccccc2-c2ccccc2OCc2ccccc2)c1` showed a pIC50 in [10] of 7.20.

Take `O=C(O)c1cccc(-c2ccccc2-c2cc(Cl)ccc2OCc2ccc(F)cc2F)n1`: the pIC50 in [10] is 8.40. Molecule `Cc1c(C(=O)O)cccc1-c1ccccc1-c1ccccc1OCc1ccccc1` gave a pIC50 in data set [10] of 6.30. Still for that read-out and setting: as for `O=C(O)c1cccc(-c2ccccc2-c2cc(Cl)ccc2OCc2ccccc2)n1`, the figure is 8.00; as for `CCCC(=O)Nc1cc(C(=O)O)cc(-c2ccccc2-c2cc(Cl)ccc2OCc2ccccc2)c1`, 8.70. On the same count and under the same terms, the figure for `O=C(O)c1cccc(-c2ccccc2-c2ccccc2OCc2ccccc2)c1` is 7.70.
